The nature of data set [1]: In vitro stability (half-life) in phosphate buffered saline (PBS) pH 7.4. As to conditions: pH 7.4, 5 μM, PBS pH 7.4, 37° C., read-out: T1/2 (minutes) PBS. The format is physicochemical. As to the method:
(§1) Certain compounds from Tables 1 and 2 and CXL-1020 were tested for their stability in phosphate buffered saline (PBS) and plasma. The assay system comprised (i) PBS, or plasma from rat, dog or human (at least 3 donors, male, pooled) at pH 7.4, and (ii) for tests conducted in plasma, an anticoagulant (sodium heparin or sodium citrate). Each test compound (5 μM) was incubated in PBS or plasma at 37° C. on a THERMOMIXER® with shaking. Three samples (n=3) were taken at each of seven sampling time points: 0, 10, 30, 60, 90, 180 and 360 minutes. The samples were immediately combined with 3 volumes (i.e., 3 times the volume of PBS or plasma) of acetonitrile containing 1% formic acid and an internal standard to terminate the reaction. AB SCIEX API 3000 LC-MS/MS analysis of the test compounds was performed without a standard curve. Half-lives (T1/2) of the test compounds were determined from graphs of the percent remaining values using the peak area response ratio. For compounds tested multiple times, the value provided in the Table represents an average of the replicate assays.

A short description of data set [2]: HNO production determined via N2O quantification (GC headspace analysis). The format is physicochemical. As to conditions: PBS, 37° C. The source says:
Nitrous oxide (N2O) is produced via the dimerization and dehydration of HNO, and is the most common marker for nitroxyl production (Fukuto et al., Chem. Res. Toxicol. 18:790-801 (2005)). […] Using either nitrous oxide gas or Angeli's salt (AS) as a standard, the relative amounts of N2O released from compounds of the disclosure was examined via gas chromatography (GC) headspace analysis.
A procedure for determining the relative amounts of N2O released from compounds of the disclosure is as follows. GC was performed on an Agilent gas chromatograph equipped with a split injector (10:1 splitting), microelectron capture detector, and a HP-MOLSIV 30 m×0.32 mm×25 μm molecular sieve capillary column. Helium was used as the carrier (4 mL/min) gas and nitrogen was used as the make-up (20 mL/min) gas. The injector oven and the detector oven were kept at 200° C. and 325° C., respectively. All nitrous oxide analyses were performed with the column oven held at a constant temperature of 200° C.
All gas injections were made using an automated headspace analyzer. Vial pressurization was 15 psi. The analyzer's sample oven, sampling valve, and transfer line were kept at 40° C., 45° C., and 50° C., respectively. The oven stabilization, vial pressurization, loop fill, loop equilibration, and sample injection times were 1.00 min., 0.20 min., 0.20 min., 0.05 min., and 1.00 min., respectively.
All determinations used a batch of nominal 20 mL headspace vials with volumes pre-measured for sample uniformity (actual vial volume varied by <2.0% relative standard deviation (n=6)). The average vial volume for the batch was determined from six randomly-selected vials by calculating the weight difference between the capped and sealed empty (i.e., air-filled) vial and the capped and sealed deionized water-filled vial using the known density of deionized water, then averaging. Blanks were prepared by sealing and capping two vials then purging each for 20 seconds with a gentle argon stream. Nitroxyl standards were prepared by sealing and capping four vials then purging each for 1 minute with a gentle stream, from a gas cylinder, of a 3000 ppm […].
CXL-1020 (N-hydroxy-2-methanesulfonylbenzene-1-sulfonamide) “standards” were prepared by, in duplicate, accurately weighing 10±0.5 mg of CXL-1020 and adding it to each 4 mL vial. Using an auto pipette, 1 mL of argon-purged anhydrous DMF (Sigma-Aldrich) was added to each 4 mL vial to form a CXL-1020 stock solution for each sample and the vials were capped and shaken and/or sonicated to insure complete dissolution upon visual observation. Using an auto pipette, 20 mL vials were charged with 5 mL of PBS (purged for at least 30 min. with argon prior to use), purged with argon for at least 20 sec., and sealed with a rubber septum. Using a 50 μL syringe, 50 μL of the CXL-1020 stock solution was injected into each 20 mL vial containing the PBS.
Samples were prepared as follows. In duplicate, 18±1 mg of each sample was accurately weighed into each 4 mL vial. Using an auto pipette, 1 mL of argon-purged anhydrous DMF was added to each 4 mL vial to form a sample stock solution for each sample and the vials were capped and shaken and/or sonicated to insure complete sample dissolution upon visual observation. Using an auto pipette, 20 mL vials were charged with 5 mL of PBS (purged for at least 30 min. with argon prior to use), purged with argon for at least 20 sec., and sealed with a rubber septum. The vials were equilibrated for at least 10 min. at 37° C. in a dry block heater. Thereafter, using a 50 μL syringe, 50 μL of a sample stock solution was injected into each 20 mL vial containing the PBS. The vials were then held at 37° C. in the dry block heater for a time period such that the sum of the time spent in the dry block heater plus the time spent in the automated headspace analyzer oven before sample injection equaled the desired incubation time. […]

The nature of data set [3]: In vitro stability (half-life) in rat plasma. The format is in vitro ADME. To be noted: rat plasma pH 7.4 with anticoagulant, 37° C.; for half-life at 5 μM: male, rat, plasma, pH 7.4, 5 μM, read-out: T1/2 (minutes) Rat. As to the method: as §1

Data on 24 compounds can be found in patent US10245249B2, “Pharmaceutical compositions comprising nitroxyl donors” (Cardioxyl Pharmaceuticals, Inc., priority 2013, dated 2019).

Each structure is given as a SMILES string.

Regarding `O=S(=O)(NO)c1cccc2ccoc12` [Compound 4, N-Hydroxy-1-benzofuran-7-sulfonamide], in data set [1], the half-life at 5 μM is 149 min. For the same compound, the “Relative N2O Yield (90 minutes incubation)” value in data set [2] is recorded as 64%.
Take `CC(=O)N1CCc2cc(Br)c(S(=O)(=O)NO)cc21` [Compound 9, 1-Acetyl-5-bromo-N-hydroxy-2,3-dihydro-1H-indole-6-sulfonamide]: the half-life at 5 μM in data set [1] was determined as 2 min. Besides, in data set [2], the “Relative N2O Yield (90 minutes incubation)” value was found to be 53% and the “Relative N2O Yield (360 minutes incubation)” value is recorded as 71%. The half-life at 5 μM in data set [3] is greater than 360 min.
Consider `O=S(=O)(NO)c1cc(CO)ccc1Cl` [Compound 10, 2-Chloro-N-hydroxy-5-(hydroxymethyl)benzene-1-sulfonamide], for which the half-life at 5 μM in data set [1] is 5 min. In data set [2], the “Relative N2O Yield (90 minutes incubation)” value is 91%.
In the case of `CC(=O)N1CCc2cc(Cl)c(S(=O)(=O)NO)cc21` [Compound 11, 1-Acetyl-5-chloro-N-hydroxy-2,3-dihydro-1H-indole-6-sulfonamide], the values for the half-life at 5 μM in data set [1] and in data set [3] were 5 min and less than 5 min, respectively. The “Relative N2O Yield (90 minutes incubation)” value in data set [2] stood at 55%. The “Relative N2O Yield (360 minutes incubation)” value in data set [2] was 81%.
Regarding `O=S(=O)(NO)c1cc(Cl)c(Cl)s1` [Compound 12, 4,5-Dichloro-N-hydroxythiophene-2-sulfonamide], the half-life at 5 μM in data set [1] is 20 min. Also, the “Relative N2O Yield (90 minutes incubation)” value in data set [2] turned out to be 29%.
Taken in the same sequence, the figures for `COc1ccc2cc(S(=O)(=O)NO)oc2c1` [Compound 13, N-Hydroxy-6-methoxy-1-benzofuran-2-sulfonamide] were 42 min and 86%.
In the case of `Cc1ccc(S(=O)(=O)NO)c(F)c1` [Compound 14, 2-Fluoro-N-hydroxy-4-methylbenzene-1-sulfonamide], the values for the half-life at 5 μM in data set [1] and in data set [3] were 75 min and 13 min, respectively. Further, the “Relative N2O Yield (90 minutes incubation)” value in data set [2] was 48%. Further, in data set [2], the “Relative N2O Yield (360 minutes incubation)” value was found to be 70%.
As to `O=S(=O)(NO)c1ccc2nsnc2c1` [Compound 15, N-Hydroxy-2,1,3-benzothiadiazole-5-sulfonamide], the half-life at 5 μM in data set [1] was found to be 63 min. Further, in data set [2], the “Relative N2O Yield (90 minutes incubation)” value was 59% and the “Relative N2O Yield (360 minutes incubation)” value was 71%.
For the compound `CS(=O)(=O)c1csc(S(=O)(=O)NO)c1` [Compound 16, N-Hydroxy-4-methanesulfonylthiophene-2-sulfonamide], in data set [1], the half-life at 5 μM came out at 20 min. Also, the “Relative N2O Yield (90 minutes incubation)” value in data set [2] came out at 86%.
On to `COc1ccc(Br)cc1S(=O)(=O)NO` [Compound 17, 5-Bromo-N-hydroxy-2-methoxybenzene-1-sulfonamide], for which, in data set [1], the half-life at 5 μM was 59 min. Moreover, in data set [2], the “Relative N2O Yield (90 minutes incubation)” value is 53% and the “Relative N2O Yield (360 minutes incubation)” value came to 77%. Moreover, the half-life at 5 μM in data set [3] is greater than 360 min.
As for `Cc1cc(S(=O)(=O)NO)c(C)cc1Cl` [Compound 18, 4-Chloro-N-hydroxy-2,5-dimethylbenzene-1-sulfonamide], the half-life at 5 μM in data set [1] stood at 56 min. In addition, in data set [2], the “Relative N2O Yield (90 minutes incubation)” value was 56% and the “Relative N2O Yield (360 minutes incubation)” value is reported as 73%. Besides, the half-life at 5 μM in data set [3] was greater than 360 min.
Consider `CCN(CC)C(=O)c1ccc(S(=O)(=O)NO)s1` [Compound 19, N,N-Diethyl-5-(hydroxysulfamoyl)thiophene-2-carboxamide], for which the half-life at 5 μM in data set [1] came out at 44 min. Also, the “Relative N2O Yield (90 minutes incubation)” value in data set [2] was found to be 77%.
Consider `Cc1ccc(F)cc1S(=O)(=O)NO` [Compound 20, 5-Fluoro-N-hydroxy-2-methylbenzene-1-sulfonamide], for which the “Relative N2O Yield (90 minutes incubation)” value in data set [2] amounted to 90%. In data set [3] (5 μM), the “T1/2 (minutes) Rat” value turned out to be 7 min.
Regarding `O=C(c1ccc(S(=O)(=O)NO)s1)N1CCOCC1` [Compound 21, N-Hydroxy-5-(morpholine-4-carbonyl)thiophene-2-sulfonamide], the values for the half-life at 5 μM in data set [1] and in data set [3] were 39 min and 36 min, respectively. The “Relative N2O Yield (90 minutes incubation)” value in data set [2] is listed as 73.5%.
For `CC(C)NC(=O)c1ccc(S(=O)(=O)NO)s1` [Compound 22, 5-(Hydroxysulfamoyl)-N-(propan-2-yl)thiophene-2-carboxamide] the same measures were 33 min, 23 min and 85%.
For `CS(=O)(=O)c1ccc(S(=O)(=O)NO)s1` [Compound 23, N-Hydroxy-5-methanesulfonylthiophene-2-sulfonamide], the half-life at 5 μM in data set [1] turned out to be 66 min.
As for `O=S(=O)(NO)c1cccc2nsnc12` [Compound 24, N-Hydroxy-2,1,3-benzothiadiazole-4-sulfonamide], the half-life at 5 μM in data set [1] was determined as 37 min. Also, in data set [2], the “Relative N2O Yield (90 minutes incubation)” value worked out at 60% and the “Relative N2O Yield (360 minutes incubation)” value amounted to 69%. The half-life at 5 μM in data set [3] amounted to 14 min.
As for `COc1ccccc1S(=O)(=O)NO` [Compound 25, N-Hydroxy-2-methoxybenzene-1-sulfonamide], the half-life at 5 μM in data set [1] came to 86 min. Also, in data set [2], the “Relative N2O Yield (90 minutes incubation)” value is on record as 7% and the “Relative N2O Yield (360 minutes incubation)” value was 28%.
Consider `O=C(c1cc(S(=O)(=O)NO)cs1)N1CCOCC1` [Compound 28, N-Hydroxy-5-(morpholine-4-carbonyl)thiophene-3-sulfonamide], for which, in data set [1], the half-life at 5 μM came out at 136 min. Besides, in data set [2], the “Relative N2O Yield (90 minutes incubation)” value was found to be 74%.
For `Cc1nn(C)c(Cl)c1S(=O)(=O)NO` [Compound 30, 5-Chloro-N-hydroxy-1,3-dimethyl-1H-pyrazole-4-sulfonamide] the same measures were 385 min and 27%.
Regarding `Cn1cc(S(=O)(=O)NO)cn1` [Compound 31, N-Hydroxy-1-methyl-1H-pyrazole-4-sulfonamide], in data set [1], the half-life at 5 μM worked out at 745 min.
For the compound `O=S(=O)(NO)c1ccccn1` [Compound 32, N-Hydroxypyridine-2-sulfonamide], the half-life at 5 μM in data set [1] was found to be 61 min; in data set [3], 32 min. Further, the “Relative N2O Yield (90 minutes incubation)” value in data set [2] was 71%.
For `O=C(c1csc(S(=O)(=O)NO)c1)N1CCOCC1` [Compound 35, N-Hydroxy-4-(morpholine-4-carbonyl)thiophene-2-sulfonamide] the same measures were 58 min, 19 min and 100%.
For the compound `O=S(=O)(NO)c1ccc(Cl)c(Cl)c1` [Compound 95, 3,4-Dichloro-N-hydroxybenzene-1-sulfonamide], the half-life at 5 μM in data set [1] and in data set [3] was greater than 360 min in each case.
